Assay results: US10336710B2, “Benzimidazole derivatives, preparation method therefor, and applications thereof” (BEIJING PHARMACEUTICAL GROUP CO., LTD., priority 2015, dated 2019)

Legend:
human URAT1 = human URAT1 (Homo sapiens (Human), UniProt Q96S37); experiment: 14C-uric acid uptake inhibition in URAT1 high-expression 293/hURAT1 cells; type: cell-based; conditions: 50 μM 14C-uric acid, 5 minutes at 37° C., read-out: URAT1 IC50 activity classification
Description: The transfected cells were assayed for ability to uptake uric acid labelled with radioisotope. The test compounds were then evaluated for their activity by determining of their ability to block uric acid uptake by the transfected cells.
293/h URAT1 cells were plated at a density of 40000 cells/well in poly D-lysine-coated 96-well plates (BD, 356461) and incubated overnight. The medium was removed and a pre-warmed reaction buffer was added (125 mM sodium gluconate, 4.8 mM potassium gluconate, 1.3 mM calcium gluconate, 1.2 mM potassium dihydrogen phosphate, 1.2 mM magnesium sulfate, 5.6 mM glucose, 25 mM HEPES, pH 7.4) before incubating at 37° C. for 10 minutes. The buffer was removed and another reaction buffer containing 50 μM ^14C-uric acid (American Radiolabeled Chemicals, ARC0513) and the test compounds or solvent control was added before incubating at 37° C. for 5 minutes. The buffer was removed, and the plates were washed 3 times with the buffer. Cells were lysed by adding 100 mM NaOH for 20 minutes. Cell lysates were transferred to Isoplate-96 well plates (PerkinElmer, 6005040), mixed with liquid scintillators and were counted in a MicroBeta^2 (PerkinElmer) counter.
The test compounds were all dissolved in DMSO, and DMSO of the same concentration without the test compounds was used as a solvent control. […] The IC50 of each compound was calculated using the percentage of inhibition at different concentrations.

hyperuricemia rat models = experiment: Therapeutic effect on potassium oxonate-induced hyperuricemia rat models (blood uric acid); type: in vivo, SD rats; conditions: for Blood uric acid concentration before drug administration: baseline, rat serum; for Blood uric acid concentration before drug administration / Blood uric acid concentration 7 days after drug administration: mean ± SD; for Blood uric acid concentration 7 days after drug administration: potassium oxonate 250 mg/kg/d i.p.; for Blood uric acid increase: 7 days vs before drug administration; for Effect on increment of blood uric acid levels compared with model control group (in words): 80 mg/kg/day and 40 mg/kg/day, potassium oxonate rat model
Description: Experimental animals: SD rats (SPF level), Laboratory Animal Center, Chinese Academy of Military Medical Sciences.
Rats weighing 200±20 g were fasted for 12 hours after a 1-week adaptive feeding period and were intraperitoneally injected with potassium oxonate (250 mg/kg/d) once daily for 7 consecutive days for modeling. The rats were closely observed after injection. […]
Blood samples were collected from the retro-orbital venous plexus before the preparation of the rat models and after administering the test compounds for 7 days. Serum was separated from the blood samples. Urine was collected using a metabolic cage for 24 hours and the supernatant was collected after centrifuge. Blood uric acid levels were measured using an automatic biochemical analyzer. The average increment in blood uric acid concentration was calculated for each group of animals.
SPSS 13.0 statistical software package was used to analyze the data. The data in each group were expressed as mean plus or minus standard deviation (x±s). The data were compared using a comparative t-test between groups, where p<0.05 was considered as statistically significant.

[1] = 40 mg/kg/d intragastric once daily for 7 days
[2] = 80 mg/kg/d intragastric once daily for 7 days

Chain of human URAT1 (Q96S37 whole entry): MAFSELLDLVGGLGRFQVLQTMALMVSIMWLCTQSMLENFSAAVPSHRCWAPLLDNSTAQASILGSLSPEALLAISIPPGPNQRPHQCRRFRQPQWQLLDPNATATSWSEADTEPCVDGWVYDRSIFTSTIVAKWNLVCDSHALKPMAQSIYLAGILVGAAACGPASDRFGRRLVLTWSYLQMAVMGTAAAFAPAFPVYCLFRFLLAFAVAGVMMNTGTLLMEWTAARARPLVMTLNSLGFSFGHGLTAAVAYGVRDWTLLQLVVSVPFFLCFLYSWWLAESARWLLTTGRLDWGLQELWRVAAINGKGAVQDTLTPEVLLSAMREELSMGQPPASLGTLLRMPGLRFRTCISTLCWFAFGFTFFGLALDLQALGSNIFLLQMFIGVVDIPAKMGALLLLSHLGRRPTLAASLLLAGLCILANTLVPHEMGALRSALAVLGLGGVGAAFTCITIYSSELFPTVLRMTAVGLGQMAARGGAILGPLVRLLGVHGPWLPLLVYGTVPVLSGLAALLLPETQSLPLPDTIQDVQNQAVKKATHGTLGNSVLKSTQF

| SMILES | IC50 (human URAT1) | Blood uric acid concentration before drug administration (hyperuricemia rat models; 40 mg/kg/d group) | Blood uric acid concentration 7 days after drug administration (hyperuricemia rat models; [1]) | Blood uric acid increase (hyperuricemia rat models; 40 mg/kg/d) | Blood uric acid concentration before drug administration (hyperuricemia rat models; 80 mg/kg/d group) | Blood uric acid concentration 7 days after drug administration (hyperuricemia rat models; [2]) | Blood uric acid increase (hyperuricemia rat models; 80 mg/kg/d) | Effect on increment of blood uric acid levels compared with model control group (in words) (hyperuricemia rat models) |
| --- | --- | --- | --- | --- | --- | --- | --- | --- |
| CC(C)(Sc1nc2ccccc2n1-c1ccc(C#N)cc1)C(=O)O [Example I4, 2-methyl-2-[[1-(4-cyanophenyl)-1H-benzo[d]imidazol-2-yl]thio]propanoic acid] | 1 to 15 µM | 142.57 ± 6.43 µmol/L | 173.05 ± 17.24 µmol/L | 21.38% | 158.38 ± 13.67 µmol/L | 177.24 ± 5.77 µmol/L | 11.90% |  |
| CC(C)(Sc1nc2ccccc2n1-c1ccc([N+](=O)[O-])cc1F)C(=O)O [Example I7, 2-methyl-2-[[1-(4-nitro-2-fluorophenyl)-1H-benzo[d]imidazol-2-yl]thio]propanoic acid] | 30 to 100 µM |  |  |  |  |  |  |  |
| O=C(O)C(Sc1nc2ccccc2n1-c1ccc(C2CC2)c2ccccc12)c1ccc(Cl)cc1 (stereo not drawn) [Example I6, 2-(4-chlorophenyl)-2-[[1-(4-cyclopropylnaphth-1-yl)-1H-benzo[d]imidazol-2-yl]thio]acetic acid] | 15 to 30 µM |  |  |  |  |  |  |  |
| CC(C)(Sc1nc2ccccc2n1-c1ccccc1)C(=O)O [Example I8, 2-methyl-2-[(1-phenyl-1H-benzo[d]imidazol-2-yl)thio]propanoic acid] | 30 to 100 µM |  |  |  |  |  |  |  |
| CC(C)(Sc1nc2ccccc2n1-c1ccccc1F)C(=O)O [Example I13, 2-methyl-2-[[1-(2-fluorophenyl)-1H-benzo[d]imidazol-2-yl]thio]propanoic acid] | 15 to 30 µM |  |  |  |  |  |  |  |
| COc1ccc2c(c1)nc(SC(C)(C)C(=O)O)n2-c1ccc(C#N)c2ccccc12 [Example I1, 2-methyl-2-[[5-methoxy-1-(4-cyanonaphth-1-yl)-1H-benzo[d]imidazol-2-yl]thio]propanoic acid] | 1 to 15 µM | 169.61 ± 19.57 µmol/L | 175.79 ± 16.54 µmol/L | 3.64% | 175.83 ± 16.39 µmol/L | 175.95 ± 15.43 µmol/L | 0.07% | could significantly reduce the increment of blood uric acid levels |
| CC(C)(Sc1nc2ccccc2n1-c1ccc(C#N)c2ccccc12)C(=O)O [Example I2, 2-methyl-2-[[1-(4-cyanonaphth-1-yl)-1H-benzo[d]imidazol-2-yl]thio]propanoic acid] | 1 to 15 µM | 156.38 ± 12.62 µmol/L | 172.86 ± 9.37 µmol/L | 10.54% | 150.86 ± 20.46 µmol/L | 161.81 ± 8.38 µmol/L | 7.26% | could significantly reduce the increment of blood uric acid levels |
| CC(C)(Sc1nc2cc(Br)ccc2n1-c1ccc(C#N)c2ccccc12)C(=O)O [Example I3, 2-methyl-2-[[5-bromo-1-(4-cyanonaphth-1-yl)-1H-benzo[d]imidazol-2-yl]thio]propanoic acid] | 1 to 15 µM | 169.21 ± 14.24 µmol/L | 180.38 ± 14.36 µmol/L | 6.60% | 181.25 ± 24.86 µmol/L | 159.40 ± 13.99 µmol/L | −12.06% | could significantly reduce the increment of blood uric acid levels |
| CC(C)(Sc1nc2ccccc2n1-c1ccc(Cl)cc1F)C(=O)O [Example I12, 2-methyl-2-[[1-(4-chloro-2-fluorophenyl)-1H-benzo[d]imidazol-2-yl]thio]propanoic acid] | 15 to 30 µM |  |  |  |  |  |  |  |
| CC(C)(Sc1nc2ccccc2n1-c1ccc(C2CC2)c2ccccc12)C(=O)O [Example I5, 2-methyl-2-[[1-(4-cyclopropylnaphth-1-yl)-1H-benzo[d]imidazol-2-yl]thio]propanoic acid] | 15 to 30 µM |  |  |  |  |  |  |  |
| O=C(O)CSc1nnc(Br)n1-c1ccc(C2CC2)c2ccccc12 [Lesinurad, reference compound] |  | 156.02 ± 8.69 µmol/L | 172.57 ± 25.43 µmol/L | 10.61% | 161.20 ± 22.07 µmol/L | 166.85 ± 12.76 µmol/L | 3.50% | could reduce the increment of blood uric acid levels |
| CC(C)(Sc1nc2ccccc2n1-c1ccc(Br)cc1F)C(=O)O [Example I11, 2-methyl-2-[[1-(4-bromo-2-fluorophenyl)-1H-benzo[d]imidazol-2-yl]thio]propanoic acid] | 15 to 30 µM |  |  |  |  |  |  |  |
